How the values were obtained:
[1] = Pharmacokinetics following a single dose in rat (1 mg/kg iv, 3 mg/kg oral), LC-MS/MS, one-compartment model; format: in vivo
Method: Compounds were administered as a single dose (either 1 mg/kg bodyweight in 5% DMSO via the intravenous route or 3 mg/kg in 1% carboxymethylcellulose via the oral route) to three adult rats (using different rats for each compound and each route of administration).
Blood was then sampled at various time points (including just prior to dose administration) out to 24 hrs post dose, and the level of the various compounds was assessed using a validated LC-MS/MS assay. Briefly, 3-5 μl of the deproteinised sample was applied to a Waters Atlantis (C18 20×2.1 mm, 3 μm bead size) reverse phase chromatography column equilibrated in 0.1% formic acid in 95:5 water:actetonitrile. Over 3.5 minutes bound material was gradient eluted reaching 0.1% formic acid in 5:95 water:acetonitrile, followed by a step gradient back to 0.1% formic acid in 95:5 water:acetonitrile. The column eluent was then directed to an Applied Biosystems API 4000/3200 QTrap MS/MS mass spectrometer, with a TurboIonspray™ ion source operating in positive ion mode. The interface temperature was set at 650° C., with a 40 ms dwell time for each MRM transition, monitoring the following ions:
The internal standard in each determination was the related compound (S)-3-(2′,2′-dimethyl-propanoylamino)-caprolactam, which was spiked into the sample prior to deproteinization. The lower limit of quantitation (LLOQ) for this assay was 2.4 ng/ml for each compound except (I′), where it was 38.1 ng/ml.
Following LC-MS/MS analysis of each collected sample, the pharmacokinetic disposition of the compound was modelled using Kinetica software, a well known software package for such applications.
Compounds (VI) and (VII) were subject to pharmacokinetic analysis in rat using exactly the same protocols previous applied for compounds (I) through (V) in example 1.
We therefore subjected (VIII) to pharmacokinetic analysis in rat using exactly the same protocols previous applied for compounds (I′) through (VII) in examples 1 and 7.
The isolated (R)-enantiomer of (I) was therefore synthesised (exactly as described herein for the isolated (S)-enantiomer, but replacing the (S)-ornithine starting material with commercially available (R)-ornithine of high stereochemical purity), and the PK properties of this agent, in rat, was determined using the identical methodology described above (see Examples 1, 7 and 8).

[2] = test system: SDF-1α induced migration of THP-1 cells; assay: ChemoTx transwell migration assay, SDF-1α induced migration of THP-1 cells; format: cell-based; settings: Homo sapiens; THP-1 cell line; maximal dose of chemoattractant; read-out: ED50 SDF-1α induced migration
Method: In principle, this assay consists of two chambers separated by a porous membrane. The chemoattractant is placed in the lower compartment and the cells are placed in the upper compartment. After incubation for a period at 37° C. the cells move towards the chemoattractant, and the number of cells in the lower compartment is proportional to the chemoattractant activity (relative to a series of controls).
Next, the chemoattractant solution to be placed in the lower compartment is prepared. For example, MCP-1 is diluted in GBSS+BSA to give a final concentration of 25 ng/ml. This is divided into two pots, as for the cell suspension. To one pot, the test compound is added to the same final concentration as was added to the cell suspension, while to the other pot an equal volume of GBSS+BSA plus vehicle as appropriate (e.g., not more than 1% DMSO) is added. Alternatively, other chemokines may be used (SDF-1α at 7.5 ng/ml; RANTES at 50 ng/ml; IL-8 at 10 ng/ml using neutrophils as the target cell population). […]
The impact of the test substance is calculated by comparing the chemoattractant-induced migration which occurred in the presence or absence of various concentrations of the test substance. Typically, the inhibition of migration is expressed as a percentage of the total chemoattractant-induced migration which was blocked by the presence of the compound. […]

[3] = Identification of the primary metabolites in pooled rat urine by LC-MS-MS; format: in vivo; settings: single oral dose 3 mg/kg in 1% CMC, pooled urine over 24 hrs, qualitative
Method: (§1) Urine was collected from rats exposed to a single oral dose (3 mg/kg in 1% CMC) of each compound over a 24 hour period in metabolic cages. The pooled urine sample was then subjected to full scan mass spectral analysis, using the same LC-MS conditions as described in example 1 above. Further MS-MS analysis of the product ions was then performed, and likely fragmentations/re-arrangements assigned from the publicly available Metabolite ID database.
For the major metabolites, the assigned structures were confirmed by synthesis of authentic samples, using methods well known in the art, which were subject to LC-MS-MS analysis under the same conditions as the urine samples.
Note that metabolite ID studies provide only qualitative estimates of the relative amounts of the different metabolites present, and separately validated assays with appropriate internal standards would be required to quantitate each metabolite species.

[4] = Distribution of unchanged compound into tissues and urine 24 hrs after a single dose in rat; format: in vivo; settings: for Urine (ng/ml) unchanged parent compound: 24 hrs after a single oral dose 3 mg/kg in 1% CMC
Method: as §1
To provide a quantitative estimate of the degree of metabolism suffered by each of the compounds tested, the amount of unchanged parent compound in urine was measured using the same validated LC-MS assay described in example 1, using (S)-3-(2′,2′-dimethylpropanoylamino)-caprolactam as an internal standard. In addition, the level of compounds in various target tissues was also determined.

| minor t½β [1] [h] | Compound | clearance, times lower than for the other lactam BSCIs [1] | plasma half-life, fold longer than the other compounds [1] [fold] | AUC(0-t) ([1]; blood, single oral dose 3 mg/kg in 1% CMC, Tables 7-9, read-out: Exposure (min · ng/ml), oral exposure AUC 0-t (converted)) [ng·h/mL] | oral exposure, fold higher than the next best compound (V) ([1]; oral 3 mg/kg) [fold] | EC50 [2] [nM] | major metabolites / route of metabolism detected in urine [3] | Urine (ng/ml) unchanged parent compound [4] [ng/mL] | unchanged parent compound recovered in urine, % of the injected dose ([4]; single oral dose 3 mg/kg in 1% CMC, 24 hrs) |
| --- | --- | --- | --- | --- | --- | --- | --- | --- | --- |
|  | CC(C)(C)C(=O)N[C@H]1CCCNC1=O [Compound (I′), (S)-3-(2′,2′-dimethylpropanoylamino)-tetrahydropyridin-2-one] | more than 10 times | 10 | 15600 | ~20 | 0.05 | no significant metabolites | 24567 | more than 60% |
| 1.83 | O=C1NCCCC[C@@H]1NC(=O)C12CC3CC(CC(O)(C3)C1)C2 [Compound (V), 3-(3′-hydroxyadamantyl-1-carbonylamino)-caprolactam] |  |  |  |  |  | the glucuronidated compound was the major metabolite | 16300 |  |

From patent US20150141460A1, “Anti-inflammatory Compositions” (Cambridge Enterprise Limited, priority 2007, published 2015)
